Measurements as given in ChEMBL document CHEMBL1201862, “PubChem BioAssay data set” (2004).
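All cell lines were grown in 96-well plates and treated with compound for 48 hours. GI50 = concentration required for 50% inhibition of growth.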 Active and inactive are the calls of the source. Cut-off read from the data, not from the text of the source: active = GI50 up to about 1.1 µM and inactive = higher.

Key:
Experiment in all cases: NCI anticancer screen, dose series, 48 h
[1] = system: HOP-92
[2] = system: T47D
[3] = system: A549
[4] = system: SF-295
[5] = system: SNB-75
[6] = system: SF-268
[7] = system: SW-620
[8] = system: COLO 205
[9] = system: SK-MEL-5
[10] = system: LOX IMVI
[11] = system: OVCAR-5
[12] = system: HL-60
[13] = system: SK-MEL-2
[14] = system: NCI-H23
[15] = system: MCF7
[16] = system: A498
[17] = system: IGROV-1
[18] = system: PC-3
[19] = system: UO-31
[20] = system: MDA-MB-435

OC1(c2ccc(Cl)cc2)c2c(c3ccccc3c3ccccc23)C2=NCCN21 (stereo not given)
GI50 [1]: 16.6 µM (inactive)
GI50 [2]: 15.4 µM (inactive)
GI50 [3]: 9.14 µM (inactive)
GI50 [4]: 11.5 µM (inactive)
GI50 [5]: 2.91 µM (inactive)
GI50 [6]: 10.6 µM (inactive)
GI50 [7]: 12.6 µM (inactive)
GI50 [8]: 28.2 µM (inactive)
GI50 [9]: 29 µM (inactive)
GI50 [10]: 24.1 µM (inactive)
GI50 [11]: 17 µM (inactive)
GI50 [12]: > 100 µM (inactive)
GI50 [13]: 18.7 µM (inactive)
GI50 [14]: 11.6 µM (inactive)
GI50 [15]: 14.6 µM (inactive)
GI50 [16]: 19.1 µM (inactive)
GI50 [17]: 3.96 µM (inactive)
GI50 [18]: 14.6 µM (inactive)
GI50 [19]: 10.7 µM (inactive)
GI50 [20]: 29.7 µM (inactive)

CC[C@@]1(O)C(=O)OCc2c1cc1n(c2=O)Cc2c-1nc1ccccc1c2CC[Si](C)(C)C [COSITECAN]
GI50 [1]: 0.115 µM (active)
GI50 [2]: < 0.01 µM (active)
GI50 [3]: < 0.01 µM (active)
GI50 [4]: < 0.01 µM (active)
GI50 [5]: < 0.01 µM (active)
GI50 [6]: < 0.01 µM (active)
GI50 [7]: 0.0101 µM (active)
GI50 [8]: < 0.0383 µM (active)
GI50 [9]: < 0.01 µM (active)
GI50 [10]: < 0.01 µM (active)
GI50 [11]: 0.0601 µM (active)
GI50 [12]: < 0.01 µM (active)
GI50 [13]: 0.053 µM (active)
GI50 [14]: < 0.01 µM (active)
GI50 [15]: < 0.01 µM (active)
GI50 [16]: < 0.01 µM (active)
GI50 [17]: 0.0149 µM (active)
GI50 [18]: < 0.0389 µM (active)
GI50 [19]: < 0.01 µM (active)
GI50 [20]: < 0.01 µM (active)
